Measured values published in publication PMC3494675, “Structure-Function Analysis of the Glioma Targeting NFL-TBS.40-63 Peptide Corresponding to the Tubulin-Binding Site on the Light Neurofilament Subunit” (PLoS ONE, 2012).
Peptide text beside a SMILES is read from it. * marks the point of attachment. Biotin = O=C1N[C@H]2[C@H](CS[C@H]2CCCCC(=O)*)N1

What was measured:
[1] = test system: T98G human glioblastoma cells; test: Peptide incorporation into T98G cells (immunocytochemistry, cell counting); format: cell-based
How it was run: (§1)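 Cells on cover slips were cultured 6 h with 10 μM biotinylated peptide, permeabilized, and stained with anti-β-tubulin plus fluorescent streptavidin. By fluorescence/confocal microscopy, ≥200 cells per experiment were scored for peptide uptake and for a normal versus destroyed microtubule network; at least three repeats.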

[2] = test system: T98G human glioblastoma cells; test: Disintegration of the microtubule network in T98G cells (anti-tubulin immunostaining, cell counting); format: cell-based; settings: T98G cells, 10 µM biotinylated peptide, 6 hours; anti-tubulin immunostaining; minimum 200 cells per experiment; mean ± S.E.M., triplicated
How it was run: as §1

[3] = test system: Human adrenal carcinoma SW13 cells; test: Peptide entry into SW13 cells (immunocytochemistry); format: cell-based; settings: 10 µM, 6 hours
Description: (§2) Figure 1 Internalization and effects on glioblastoma T98G cells of the wild type peptide NFL-TBS.40-63 and peptides from the alanine scan. (A): Human glioblastoma T98G cells were incubated in the presence of different peptides at 10 µM during 6 hours. MTs were detected by immunostaining using an anti-tubulin antibody (red), and biotinylated peptides were detected using Alexa-labeled avidin (green). While the original NFL-TBS.40-63 peptide is able to penetrate in these cells, the replacement of valine-14 by alanine typically abolished this property. White bars, 20 µm. (B) Human adrenal carcinoma SW13 cells were incubated in the presence of NFL-TBS.40-63 peptide (10 µM, 6 hours). MTs appear in red, peptide in green, nuclei in blue. White bars, 20 µm. (C): We quantified by microscopy the percentage of T98G cells containing the peptide and those with a destroyed MT network. Experiments were triplicated and a minimum of 200 cells was examined in each experiment. Data are presented as mean and S.E.M. (bars). Asterisks indicate significant level versus control: * p<0.05; ** p<0.005; *** p<0.001. As glioblastoma cells are known to have multiple mutations and abnormalities, the shaded area corresponds to the percentage of cells where MTs are disorganized even in the absence of peptide.
(§3) Cells were plated on cover slips and cultured in media containing biotinylated peptides (10 µM) for 6 hours. […]

[4] = test system: Human adrenal carcinoma SW13 cells; test: Effect on MT network of SW13 cells (immunocytochemistry); format: cell-based; settings: 10 µM, 6 hours
Description: as §2, §3

[5] = Structural (thermal) stability by circular dichroism at 220 nm; format: physicochemical
Description: Circular dichroism (CD) spectra were measured in a J-810 CD spectrometer (Jasco, Japan) in step mode (bandwidth: 2 nm; interval: 0.1 nm; response time: 0.125 s). The spectra were averaged over 3 scans to increase the signal to noise ratio. To optimize the measurements, a 1 cm×0.2 cm mini-quartz cell with four windows (Hellema, Germany) was used in such a way that the spectra from 260 to 200 nm were measured with a 1 cm pathlength and those between 220 and 185 nm with 0.2 cm pathlength. After normalization for pathlength (1 cm), the superimposition of two separated spectra in the 200–220 nm region was verified and the entire spectra reconstituted. The temperature of measurement was controlled with a Peltier-effect temperature controller, and was usually 20°C. […] All the CD experiments were performed with 20 µM peptide under 3 buffer conditions: pure water, 2 mM SDS and 10 mM potassium phosphate pH 7.4 with 200 mM KF.

[6] = Secondary structure estimation from CD spectra; format: physicochemical; settings: Reed's reference set
Description: Circular dichroism (CD) spectra were measured in a J-810 CD spectrometer (Jasco, Japan) in step mode (bandwidth: 2 nm; interval: 0.1 nm; response time: 0.125 s). The spectra were averaged over 3 scans to increase the signal to noise ratio. To optimize the measurements, a 1 cm×0.2 cm mini-quartz cell with four windows (Hellema, Germany) was used in such a way that the spectra from 260 to 200 nm were measured with a 1 cm pathlength and those between 220 and 185 nm with 0.2 cm pathlength. After normalization for pathlength (1 cm), the superimposition of two separated spectra in the 200–220 nm region was verified and the entire spectra reconstituted. The temperature of measurement was controlled with a Peltier-effect temperature controller, and was usually 20°C. The structural stability of peptides was studied by measuring the variation in CD signal at 220 nm (bandwidth: 10 nm; interval: 1 s; response time: 0.5 s; pathlength: 1 cm) when the temperature was increased by 1°C/min from 20 to 85°C. All the CD experiments were performed with 20 µM peptide under 3 buffer conditions: pure water, 2 mM SDS and 10 mM potassium phosphate pH 7.4 with 200 mM KF.
The secondary structures were estimated from the CD spectra with Jasco secondary structure estimation software. The spectra from […] were decomposed to α-helix, β-sheet, β-turn and random coil elements using either Reed's or Yang's reference set as reference spectrum of each element as described, [38]. We usually obtained better fits using Reed's reference.

[7] = KF/phosphate buffer pH 7.4, 20 µM

**Q.** With `CC(C)C[C@H](NC(=O)[C@H](CO)NC(=O)[C@H](CO)NC(=O)[C@H](CO)NC(=O)[C@@H](NC(=O)[C@@H]1CCCN1C(=O)[C@H](C)NC(=O)[C@H](CO)NC(=O)[C@H](Cc1ccc(O)cc1)NC(=O)[C@H](CO)NC(=O)[C@H](CO)NC(=O)[C@H](Cc1ccc(O)cc1)NC(=O)CCCC[C@@H]1SC[C@@H]2NC(=O)N[C@@H]21)C(C)C)C(=O)N[C@@H](CO)C(=O)N[C@H](C(=O)N[C@@H](CCCNC(=N)N)C(=O)N[C@@H](CCCNC(=N)N)C(=O)N[C@@H](CO)C(=O)N[C@@H](Cc1ccc(O)cc1)C(=O)N[C@@H](CO)C(=O)N[C@@H](CO)C(=O)N[C@@H](CO)C(=O)N[C@@H](CO)C(=O)NCC(=O)N[C@@H](CO)C(N)=O)C(C)C` [NFL-TBS.40-63] (Biotin-YSSYSAPVSSSLSVRRSYSSSSGS-NH2) as the molecule, how does the “Peptide incorporation (% of cells)” value ([1]; T98G cells, 10 µM biotinylated peptide, 6 hours, Alexa-labeled avidin/streptavidin fluorescence microscopy, minimum 200 cells per experiment, mean ± S.E.M., triplicated) read?
**A.** Its value is 51.2±4.2 % of cells.

**Q.** What about the “Cell penetration of the peptide once heated” value ([1]; peptide heated in KF/phosphate buffer (thermally unfolded)) of the same molecule?
**A.** The value was “could not penetrate into the cells”.

**Q.** What about the “Disintegration of MT (% of cells)” value [2] of the same molecule?
**A.** The value was 58.4±2.3 % of cells.

**Q.** And the “Entry into SW13 cells” value [3]?
**A.** The value was “enters in SW13 cells”.

**Q.** What about the “Effect on MT network of SW13 cells” value [4] of the same molecule?
**A.** Its value is “without affecting the MT network”.

**Q.** What about the “Refolding on lowering temperature” value ([5]; CD 220 nm, KF/phosphate buffer, 70 to 10°C at 1°C per min and after 12 hours at 20°C) of the same molecule?
**A.** Its value is “no refolding was observed”.

**Q.** And the “Tm of thermal unfolding” value ([5]; CD signal at 220 nm, 20 µM peptide, KF/phosphate buffer (10 mM potassium phosphate pH 7.4, 200 mM KF), 1°C/min)?
**A.** The value was “about 40 °C”.

**Q.** What about the “Structural stability with increasing temperature” value ([5]; CD, 20 µM peptide in 2 mM SDS, up to 70°C) of the same molecule?
**A.** Its value is “stable”.

**Q.** What about the random coil content ([6]; 2 mM SDS, 20 µM) of the same molecule?
**A.** Its random coil content is 40%.

**Q.** What about the α-helix content ([6]; 2 mM SDS, 20 µM) of the same molecule?
**A.** The α-helix content was 20%.

**Q.** And the β-sheet content ([6]; 2 mM SDS, 20 µM)?
**A.** Its β-sheet content is 40%.

**Q.** And the random coil content [6, 7]?
**A.** The random coil content was 36%.

**Q.** And the α-helix content [6, 7]?
**A.** The α-helix content was 7%.

**Q.** What about the β-sheet content [6, 7] of the same molecule?
**A.** The β-sheet content was 56%.

**Q.** What about the random coil content ([6]; pure water, 20 µM, 20°C) of the same molecule?
**A.** Its random coil content is 75%.

**Q.** And the β-sheet content ([6]; pure water, 20 µM, 20°C)?
**A.** The β-sheet content was 25%.
